Values belong to the molecule of their own block, whether it stands above or below them. *1 amine or outer side, *2 acyl side, *3 side chain or, on linkers, in order; H or OH if unused. Where a SMILES comes first, the peptide text is derived from it. Where no end group is shown, it is not given here. Side-chain parts run from the residue outwards. [ ]: non-standard residue; d: D form. The star is where a group is joined. C16 diacid = O=C(O)CCCCCCCCCCCCCCC(=O)*; γGlu = O=C(O)[C@H](CCC(=O)[*:2])N[*:1]; NMeI = CC[C@H](C)[C@H](NC)C(=O)O; Pentanoyl = CCCCC(=O)*; Propionyl = CCC(=O)*; Butyryl = CCCC(=O)*
How the values were obtained:
human CRF2a receptor = target: T1, human CRF2a receptor (Homo sapiens, UniProt Q13324); assay: Activity at human CRF2a receptor, cAMP functional assay in TeloHEAC cells; type: cell-based; conditions: TeloHEAC cells stably expressing human CRF2a receptor, relative to urocortin 2 (100 nM = 100%)
T1 construct: expressed in transfected cells; host or cells: TeloHEAC cells
T1 sequence (Q13324 1-411): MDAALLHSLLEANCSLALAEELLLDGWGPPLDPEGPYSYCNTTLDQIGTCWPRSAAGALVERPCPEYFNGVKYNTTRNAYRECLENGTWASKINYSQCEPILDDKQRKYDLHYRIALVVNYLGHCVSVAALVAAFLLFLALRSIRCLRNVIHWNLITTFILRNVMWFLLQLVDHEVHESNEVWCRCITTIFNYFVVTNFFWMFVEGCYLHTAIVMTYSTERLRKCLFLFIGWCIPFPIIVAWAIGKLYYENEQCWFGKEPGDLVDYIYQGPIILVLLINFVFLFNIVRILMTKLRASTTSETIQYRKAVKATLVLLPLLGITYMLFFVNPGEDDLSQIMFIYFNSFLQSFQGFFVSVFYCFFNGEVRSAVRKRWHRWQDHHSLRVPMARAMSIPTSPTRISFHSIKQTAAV
Description: Agonism of compounds for human corticotropin-releasing factor 2a (CRF2a receptor) was determined by a functional assay measuring cAMP modulation upon treatment of TeloHEAC cells stably expressing human CRF2a receptor. Compounds were dissolved at 0.5 mM in 100% DMSO and serially diluted (1:2) in 100% DMSO for 16 dilutions. 20 nL of each dilution was then transferred to 384-well assay plate using an acoustic droplet ejection instrument. 5 μL of compound buffer (1×HBSS; 20 mM HEPES,) were then added to each well. Prior to use, frozen cells were thawed quickly at 37° C. and washed (5 min at 900 rpm) with 20 mL cell buffer (1×HBSS; 20 mM HEPES). Cells were resuspended in cell buffer added with 2 mM IBMX and adjusted to a cell density of […]. 5 μL cells (final dell density: 10000 cells/well) were dispensed in the compound-containing 384-well assay plate and incubated for 30 minutes 37° C. The cAMP level in treated cells was determined using the Cisbio 62AM4PEC kit according to manufacturer's instruction. Finally, plates were incubated for 1 h at room temperature before measuring the fluorescence ratio between 665/620 nm. The percent activity value (E %) was calculated by setting 100 nM of urocortin 2 (UCN2) as 100%. The in vitro potency of the compounds was quantified by determining the concentrations that caused 50% activation of maximal response (EC50) relative to urocortin 2.

CFR1R receptor = target: T2, CFR1R receptor (Homo sapiens, UniProt P34998); assay: Activity at anti-target CFR1R receptor, cAMP assay in CRF1R-overexpression CHO-K1 cells; type: cell-based; conditions: 100% = Sauvagine at 100 nM
T2 construct: host or cells: CHO-K1 (clone 2)
T2 sequence (P34998 24-415): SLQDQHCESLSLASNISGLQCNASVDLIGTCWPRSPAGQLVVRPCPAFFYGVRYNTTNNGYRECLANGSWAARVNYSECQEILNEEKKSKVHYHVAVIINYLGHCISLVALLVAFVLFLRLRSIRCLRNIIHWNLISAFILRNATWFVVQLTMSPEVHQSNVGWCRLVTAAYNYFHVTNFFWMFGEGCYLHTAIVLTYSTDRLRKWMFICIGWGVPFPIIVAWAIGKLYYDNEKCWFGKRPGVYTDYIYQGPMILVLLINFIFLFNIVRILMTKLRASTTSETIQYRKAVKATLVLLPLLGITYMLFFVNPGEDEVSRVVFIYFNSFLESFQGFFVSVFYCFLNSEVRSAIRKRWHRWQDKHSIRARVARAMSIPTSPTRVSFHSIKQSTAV
How it was run: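 Clone 2 cells were cultured in F12 (Hams)/10% FBS/400 μg/ml G418 at 37° C./5% CO2, frozen in medium with 10% DMSO, and thawed vials used. The protocol followed the TeloHAEC procedure, with 4000 cells/well final and Sauvagine at 100 nM defining 100% activation.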

CRF1R receptor = target: T3, CRF1R receptor (UniProt P34998 24-415, limits assumed); assay: cell-based or functional assay
T3 sequence (looked up): T2 sequence (P34998 24-415)

[1] = target: human corticotropin-releasing factor 2a (CRF2a receptor) (human), Q13324; assay: cell-based or functional assay

EC50 (human CRF2a receptor): 0.09 nM
Emax (% I) (CFR1R receptor): 48 % I
Molecule: CC[C@H](C)[C@H](NC)C(=O)N[C@H](C(=O)N[C@@H](CC(C)C)C(=O)N[C@@H](CO)C(=O)N[C@@H](CC(C)C)C(=O)N[C@@H](CC(=O)O)C(=O)N[C@@H](C(=O)N1CCC[C@H]1C(=O)N[C@H](C(=O)N[C@@H](CCCCN)C(=O)N[C@@H](CC(C)C)C(=O)N[C@@H](CCCCNC(=O)CC[C@H](NC(=O)CCCCCCCCCCCCCCC(=O)O)C(=O)O)C(=O)N[C@@H](CCC(N)=O)C(=O)N[C@H](C(=O)N[C@@H](CC(C)C)C(=O)N[C@@H](CC(C)C)C(=O)N[C@@H](CCCCN)C(=O)N[C@@H](CCC(N)=O)C(=O)N[C@@H](CCC(=O)O)C(=O)N[C@@H](CCCNC(=N)N)C(=O)N[C@@H](CCC(N)=O)C(=O)N[C@@H](CCCCN)C(=O)N[C@@H](CCCCN)C(=O)N[C@@H](CCC(N)=O)C(=O)N[C@@H](CCCNC(=N)N)C(=O)N[C@@H](CCC(=O)O)C(=O)N[C@@H](CCC(N)=O)C(=O)N[C@@H](C)C(=O)N[C@@H](CCC(=O)O)C(=O)N[C@@H](CCCCN)C(=O)N[C@@H](CC(N)=O)C(=O)N[C@@H](CCCCN)C(=O)N[C@@H](CCC(N)=O)C(=O)N[C@H](C(=O)N[C@@H](CC(C)C)C(=O)N[C@@H](CCC(=O)O)C(=O)N[C@@H](CCC(N)=O)C(=O)N[C@H](C(N)=O)C(C)C)[C@@H](C)CC)[C@@H](C)CC)[C@@H](C)CC)C(C)C)C(C)C [SEQ ID No. 5, reference compound] (H-[NMeI]VLSLD[dV]PIKLK([γGlu-C16 diacid])QILLKQERQKKQREQAEKNKQILEQV-NH2)

EC50 (human CRF2a receptor): 0.09 nM
Emax (% I) (CFR1R receptor): 56 % I
Molecule: CCC(=O)N[C@H](C(=O)N[C@@H](CC(C)C)C(=O)N[C@@H](CO)C(=O)N[C@@H](CC(C)C)C(=O)N[C@@H](CC(=O)O)C(=O)N[C@@H](C(=O)N1CCC[C@H]1C(=O)N[C@H](C(=O)N[C@@H](CCCCN)C(=O)N[C@@H](CC(C)C)C(=O)N[C@@H](CCCCNC(=O)CC[C@H](NC(=O)CCCCCCCCCCCCCCC(=O)O)C(=O)O)C(=O)N[C@@H](CCC(N)=O)C(=O)N[C@H](C(=O)N[C@@H](CC(C)C)C(=O)N[C@@H](CC(C)C)C(=O)N[C@@H](CCCCN)C(=O)N[C@@H](CCC(N)=O)C(=O)N[C@@H](CCC(=O)O)C(=O)N[C@@H](CCCNC(=N)N)C(=O)N[C@@H](CCC(N)=O)C(=O)N[C@@H](CCCCN)C(=O)N[C@@H](CCCCN)C(=O)N[C@@H](CCC(N)=O)C(=O)N[C@@H](CCCNC(=N)N)C(=O)N[C@@H](CCC(=O)O)C(=O)N[C@@H](CCC(N)=O)C(=O)N[C@@H](C)C(=O)N[C@@H](CCC(=O)O)C(=O)N[C@@H](CCCCN)C(=O)N[C@@H](CC(N)=O)C(=O)N[C@@H](CCCCN)C(=O)N[C@@H](CCC(N)=O)C(=O)N[C@H](C(=O)N[C@@H](CC(C)C)C(=O)N[C@@H](CCC(=O)O)C(=O)N[C@@H](CCC(N)=O)C(=O)N[C@H](C(N)=O)C(C)C)[C@@H](C)CC)[C@@H](C)CC)[C@@H](C)CC)C(C)C)C(C)C [compound 6] (Propionyl-VLSLD[dV]PIKLK([γGlu-C16 diacid])QILLKQERQKKQREQAEKNKQILEQV-NH2)

EC50 (human CRF2a receptor): 0.06 nM
Emax (% I) (CFR1R receptor): 59 % I
Molecule: CCCC(=O)N[C@H](C(=O)N[C@@H](CC(C)C)C(=O)N[C@@H](CO)C(=O)N[C@@H](CC(C)C)C(=O)N[C@@H](CC(=O)O)C(=O)N[C@@H](C(=O)N1CCC[C@H]1C(=O)N[C@H](C(=O)N[C@@H](CCCCN)C(=O)N[C@@H](CC(C)C)C(=O)N[C@@H](CCCCNC(=O)CC[C@H](NC(=O)CCCCCCCCCCCCCCC(=O)O)C(=O)O)C(=O)N[C@@H](CCC(N)=O)C(=O)N[C@H](C(=O)N[C@@H](CC(C)C)C(=O)N[C@@H](CC(C)C)C(=O)N[C@@H](CCCCN)C(=O)N[C@@H](CCC(N)=O)C(=O)N[C@@H](CCC(=O)O)C(=O)N[C@@H](CCCNC(=N)N)C(=O)N[C@@H](CCC(N)=O)C(=O)N[C@@H](CCCCN)C(=O)N[C@@H](CCCCN)C(=O)N[C@@H](CCC(N)=O)C(=O)N[C@@H](CCCNC(=N)N)C(=O)N[C@@H](CCC(=O)O)C(=O)N[C@@H](CCC(N)=O)C(=O)N[C@@H](C)C(=O)N[C@@H](CCC(=O)O)C(=O)N[C@@H](CCCCN)C(=O)N[C@@H](CC(N)=O)C(=O)N[C@@H](CCCCN)C(=O)N[C@@H](CCC(N)=O)C(=O)N[C@H](C(=O)N[C@@H](CC(C)C)C(=O)N[C@@H](CCC(=O)O)C(=O)N[C@@H](CCC(N)=O)C(=O)N[C@H](C(N)=O)C(C)C)[C@@H](C)CC)[C@@H](C)CC)[C@@H](C)CC)C(C)C)C(C)C [compound 7] (Butyryl-VLSLD[dV]PIKLK([γGlu-C16 diacid])QILLKQERQKKQREQAEKNKQILEQV-NH2)

EC50 (human CRF2a receptor): 0.14 nM
Emax (% I) (CFR1R receptor): 50 % I
Molecule: CCCCC(=O)N[C@H](C(=O)N[C@@H](CC(C)C)C(=O)N[C@@H](CO)C(=O)N[C@@H](CC(C)C)C(=O)N[C@@H](CC(=O)O)C(=O)N[C@@H](C(=O)N1CCC[C@H]1C(=O)N[C@H](C(=O)N[C@@H](CCCCN)C(=O)N[C@@H](CC(C)C)C(=O)N[C@@H](CCCCNC(=O)CC[C@H](NC(=O)CCCCCCCCCCCCCCC(=O)O)C(=O)O)C(=O)N[C@@H](CCC(N)=O)C(=O)N[C@H](C(=O)N[C@@H](CC(C)C)C(=O)N[C@@H](CC(C)C)C(=O)N[C@@H](CCCCN)C(=O)N[C@@H](CCC(N)=O)C(=O)N[C@@H](CCC(=O)O)C(=O)N[C@@H](CCCNC(=N)N)C(=O)N[C@@H](CCC(N)=O)C(=O)N[C@@H](CCCCN)C(=O)N[C@@H](CCCCN)C(=O)N[C@@H](CCC(N)=O)C(=O)N[C@@H](CCCNC(=N)N)C(=O)N[C@@H](CCC(=O)O)C(=O)N[C@@H](CCC(N)=O)C(=O)N[C@@H](C)C(=O)N[C@@H](CCC(=O)O)C(=O)N[C@@H](CCCCN)C(=O)N[C@@H](CC(N)=O)C(=O)N[C@@H](CCCCN)C(=O)N[C@@H](CCC(N)=O)C(=O)N[C@H](C(=O)N[C@@H](CC(C)C)C(=O)N[C@@H](CCC(=O)O)C(=O)N[C@@H](CCC(N)=O)C(=O)N[C@H](C(N)=O)C(C)C)[C@@H](C)CC)[C@@H](C)CC)[C@@H](C)CC)C(C)C)C(C)C [compound 8] (Pentanoyl-VLSLD[dV]PIKLK([γGlu-C16 diacid])QILLKQERQKKQREQAEKNKQILEQV-NH2)

Emax (% I) (CRF1R receptor): 8%
EC50 [nM] (cAMP) [1]: 0.05 nM
B1: SEQ ID NO 68 (peptide)
peptide: [NMeI]VLSLD[dV]PIKLK([γGlu-C16 diacid])KILLEQEKQKKQREQAETNAQILAQV-NH2
modifications: N-terminus assumed
SMILES: CC[C@H](C)[C@H](NC)C(=O)N[C@H](C(=O)N[C@@H](CC(C)C)C(=O)N[C@@H](CO)C(=O)N[C@@H](CC(C)C)C(=O)N[C@@H](CC(=O)O)C(=O)N[C@@H](C(=O)N1CCC[C@H]1C(=O)N[C@H](C(=O)N[C@@H](CCCCN)C(=O)N[C@@H](CC(C)C)C(=O)N[C@@H](CCCCNC(=O)CC[C@H](NC(=O)CCCCCCCCCCCCCCC(=O)O)C(=O)O)C(=O)N[C@@H](CCCCN)C(=O)N[C@H](C(=O)N[C@@H](CC(C)C)C(=O)N[C@@H](CC(C)C)C(=O)N[C@@H](CCC(=O)O)C(=O)N[C@@H](CCC(N)=O)C(=O)N[C@@H](CCC(=O)O)C(=O)N[C@@H](CCCCN)C(=O)N[C@@H](CCC(N)=O)C(=O)N[C@@H](CCCCN)C(=O)N[C@@H](CCCCN)C(=O)N[C@@H](CCC(N)=O)C(=O)N[C@@H](CCCNC(=N)N)C(=O)N[C@@H](CCC(=O)O)C(=O)N[C@@H](CCC(N)=O)C(=O)N[C@@H](C)C(=O)N[C@@H](CCC(=O)O)C(=O)N[C@H](C(=O)N[C@@H](CC(N)=O)C(=O)N[C@@H](C)C(=O)N[C@@H](CCC(N)=O)C(=O)N[C@H](C(=O)N[C@@H](CC(C)C)C(=O)N[C@@H](C)C(=O)N[C@@H](CCC(N)=O)C(=O)N[C@H](C(N)=O)C(C)C)[C@@H](C)CC)[C@@H](C)O)[C@@H](C)CC)[C@@H](C)CC)C(C)C)C(C)C

From patent US20260001928A1 (CORTERIA PHARMACEUTICALS, priority 2022, published 2026)
